Results published in patent publication US9427468B2, “Compositions and methods for diagnosing and treating community-acquired methicillin-resistant Staphylococcus aureus” (priority 2007, dated 2016).
Values after ≈ are worked out from the molar mass of the structure shown. Marks after values point to notes of the source that are not given here.

How the values were obtained:
Type in all cases: cell-based, Staphylococcus aureus
Mu50 wild-type = experiment: MIC by microdilution (CLSI)
Text: Experiments were first performed using mutants of various PBPs. In-frame deletion mutants of the genes encoding PBP3 (MW1504) and PBP4 (MW0604), pbp3 and pbp4 respectively, were generated in the CA-MRSA strain MW2 and in HA-MRSA strain COL using the temperature-sensitive allelic replacement vector pMAD (Arnaud, M. et al. 2004. Appl. Environ. Microbiol. 70:6887-6891). PBP4 was also deleted in the HA-MRSA strains Mu50 and N315 and in the CA-MRSA strain USA300. […] Minimum inhibitory concentrations (MICs) were determined according to the Clinical and Laboratory Standards Institute and are a standard method for defining antibiotic efficacy against different organisms. Bacteria, grown to an OD650=1, were added to cation-supplemented Mueller Hinton broth (CSMHB) to achieve a final concentration of 5×10^5 CFU/ml.
(§1) Minimum inhibitory concentrations and minimum bactericidal concentrations (MIC and MBC, respectively) were determined for each isolate in triplicate by microdilution techniques with an inoculum of 5×10^5 CFU/ml according to the Clinical and Laboratory Standards Institute guidelines. Aliquots (5 μl) from clear wells were plated onto TSA drug-free plates for the determination of MBCs, followed by incubation at 37° C. for 24 and 48 hours. For the mutant strains, each one of the three clones was tested. MIC data were reported as median values from at least three independent experiments for each antibiotic. Also, strains containing pEPSA5-based plasmids were tested with and without xylose induction, but chloramphenicol was not added to avoid interference with beta-lactam resistance evaluation. […] The correct inocula were confirmed by plating serial dilutions on agar.

[1] = test system: CA-MRSA Strains (30 clinical isolates); experiment: MIC and synergy assay, clinical isolates
Text: (§2) Analysis of the Type IV SCCmec element, virtually identical between MW2 and USA300, allowed for identification of four genes conserved in the CA-MRSA background, but not in other known MRSA genomes. These four genes therefore served as biomarkers that could be used to distinguish CA-MRSA strains from HA-MRSA strains. PCR of chromosomal DNAs with oligonucleotides specific for mecA, pvl (Lina, G. et al. 1999. Clin. Infect. Dis. 29:1128-1132) and the four specific genes for CA-MRSAs (MW0042/USA300_0041; MW0043/USA300_0042; MW0046/USA300_0045; and MW0047/USA300_0046) identified 30 isolates positive for these genes. […] The code was subsequently broken, confirming that all 30 isolates, designated as CA-MRSA, were from patients with primary skin infections and annotated by the donating hospital as CA-MRSA while the other were blood isolates designated as HA-MRSA. […] The synergistic inhibitory activity of the combined treatment also was further tested on 30 MRSA isolates from complicated skin and soft tissue infections, with CA-MRSA being the most common etiologic agent.
(§3) Two independent batches of clinical isolates were obtained from the Dartmouth Hitchcock Medical Center, Lebanon, N.H. The first group included 200 blood MRSA isolates sub-cultured on 5% Columbia sheep blood agar (Remel). The second group involved 30 MRSA isolates from complicated skin and soft tissue infections (CSSTI) similarly sub-cultured. All strains were grown overnight in CSMHB broth and streaked on selective mannitol salt agar plates for confirmation. DNA extraction was performed on 500 μl of cultures. PCR was performed on all DNAs with oligonucleotides specific for mecA, pvl and the four genes found to be specific for the SCCmec type IV in CA-MRSA: MW0042, MW0043, MW0046, and MW0047. DNA amplification of mecA was used as a control to confirm that all strains were MRSA. DNAs from S. epidermidis, E. coli and S. pneumoniae were used as negative controls to confirm the specificity of the oligonucleotides. After amplification for 30 cycles (5 min of denaturation at 95° C., 30 s of annealing at 54° C. and 1 min extension at 72° C.), PCR products were resolved by electrophoresis through 1.5% agarose gels stained with ethidium bromide. Given the number of clinical isolates tested, only a small random group of PCR products were subjected to DNA sequencing to confirm specificity. S. aureus strain COL, Mu50, N315 and MRSA252 all tested negative for all MW0042, MW0043 and MW0047 and pvl while USA300 and MW2 were positive controls for this PCR reaction. The primer sequences for mecA, MW0042, MW0043 and MW0047 were as follows: mecA-UP 5′-GGTACTGCTATCCACCCTCAAA-3′ (SEQ ID NO:19), mecA-LOW 5′-TTACGACTTGTTGCATACCATCA-3′ (SEQ ID NO:20), MW0042-UP 5′-ATTGGCAGAAATAAACAAAACG-3′ (SEQ ID NO:21), MW0042-LOW 5′-TCGTTTAATTTTTTCCCAAACTC-3′ (SEQ ID NO:22), MW0043-UP 5′-GTTTCAGTTGGTGTTGAAGATCC-3′ (SEQ ID NO:23), MW0043-LOW 5′-CCTATAATTTTCGATAGATTCGTG-3′ (SEQ ID NO:24), MW0047-UP 5′-AGGCATATAAAGAAGCAGGAAAG-3′ (SEQ ID NO:25), MW0047-LOW 5′-CACACTGTTTTCCTACGATATTTG-3′ (SEQ ID NO:26).
as §1, with “agar. […]” for “agar.”

[2] = test system: CA-MRSA from CSSTI (30 isolates); experiment: MIC and synergy assay, clinical isolates
Text: as §2, §3
as §1, with “agar. […]” for “agar.”

[3] = test system: HA-MRSA Strains (30 clinical isolates); experiment: MIC and synergy assay, clinical isolates
Text: as §2, §3
as §1, with “agar. […]” for “agar.”

MW2 (USA400) CA-MRSA = experiment: Minimum bactericidal concentration (MBC); settings: for combination: MBC of oxacillin with ¼ MIC cefoxitin
Protocol: as §1

USA300 CA-MRSA = experiment: Minimum bactericidal concentration (MBC); settings: for combination: MBC of oxacillin with ¼ MIC cefoxitin
Protocol: as §1

[4] = Staphylococcus aureus, MRSA, 48 h, read-out: MICs 48 hr

Structure (SMILES)	MICs 48 hr (Mu50 wild-type; Mu50, 48 hr, for combination: MIC of oxacillin with ¼ MIC cefoxitin)	MICs (Mu50 wild-type; Table 1, Mu50 wild-type)	MICs 48 hr ([1]; 30 CA-MRSA clinical isolates, median values, 48 hr)	MICs 48 hr ([2]; 30 CSSTI isolates, median values, 48 hr)	MICs 48 hr ([3]; 30 HA-MRSA clinical isolates, median values, 48 hr)	MBC 48 hr (MW2 (USA400) CA-MRSA)	MBC 48 hr (USA300 CA-MRSA)	MIC (Mu50 wild-type; Staphylococcus aureus, read-out: MICs)	MIC [1, 4]	MIC [2, 4]	MIC [3, 4]
Cc1onc(-c2ccccc2)c1C(=O)N[C@@H]1C(=O)N2[C@@H]1SC(C)(C)[C@@H]2C(=O)O [OX, oxacillin]	256 µg/mL	256 µg/mL	64^b μg/ml	64^b μg/ml	256^b μg/ml	256 µg/mL	256 µg/mL	–	–	–	–
CO[C@@]1(NC(=O)Cc2cccs2)C(=O)N2C(C(=O)O)=C(COC(N)=O)CS[C@@H]21 [CX, cefoxitin]	–	–	–	–	–	> 256 µg/mL	> 256 µg/mL	256 µg/mL (≈ 599 µM)	64 µg/mL	64 µg/mL	128 µg/mL
